# Legend:
# [1] = test system: Lung Inflammation Induced by Tobacco Smoke; test: BAL inflammatory cell numbers, lung inflammation induced by tobacco smoke (COPD model); type: in vivo, C57BL/6N mice; conditions: HTHQ 10 and 20 mg/kg/day oral; tobacco smoke 10 days + LPS; compared to COPD model group
# Experimental: 6 week old male SPF C57BL/6N mice, 20 to 25 g of body weight, were purchased from CORETEC INC. (South Korea).
# The tests were conducted as follows. The mice in the COPD (chronic obstructive pulmonary disease) model group of the test groups were exposed to tobacco smoke for 1 hour per day (8 cigarettes/day) for 10 days and LPS (5 μg/50 μL/mouse) was intranasally administered to the mice on day 8 after the start of the tests. Roflumilast, the positive control substance, was orally administered to the mice in the positive control substance-administered group at 10 mg/kg body weight/day, and then they were exposed to tobacco smoke for 10 days starting from 1 hour after the administration of roflumilast, and LPS (5 μg/50 μL/mouse) was intranasally administered to the mice on day 8 after the start of the tests. […]
# The mice in the test groups were euthanized 72 hours after the LPS administration and the mice in the normal control group were euthanized on day 11 after the start of the tests by intraperitoneal injection of pentobarbital (Hanrimu pharmaceutical, South Korea) at 50 mg/kg and then the bronchi were excised. […] After preparing slide samples from 100 μL of BAL cell fluid using Cytospin (4° C., 1000 rpm×5 min), the cell numbers of inflammatory cells (neutrophil, macrophages) present in the BAL fluid were counted using a Diff-Quik stain kit.
# [2] = test system: Myocardial Disorder Induced by Doxorubicin; test: Histopathologic examination of the hearts (light microscope), myocardial disorder induced by doxorubicin; type: in vivo, female SD rats; conditions: for Severity score: Cell infiltration in interstitial tissue / Severity score: Degeneration of myocardial cells / Severity score: Loss and disorganization of myocardial fibers / Severity score: Loss of intercalated discs / Severity score: Loss of striations / Severity score: Vacuolation of myocardial fibers: Test group 2: doxorubicin 13 mg/kg + HTHQ 50 mg/kg; for lesions of cardiac tissue (light microscope): Test group 2: doxorubicin + HTHQ 50 mg/kg, compared to test group 1
# Experimental: (§1) Doxorubicin is used to produce disease-model animals of cardiomyopathy. The doxorubicin and 2,3,5-trimethylhydroquinone-1-hexyl ether (HTHQ) as the hydroquinone derivative represented by the general formula (1) described above of the present invention were simultaneously administered to female SD rats of 4 week old after birth to examine the effect of the action. The test groups consisted of the control group to which sterile saline was administered; test group 1 to which doxorubicin (13 mg/kg body weight) alone was administered; test group 2 to which doxorubicin (13 mg/kg body weight) and HTHQ (50 mg/kg body weight) were administered in combination; and test group 3 to which doxorubicin (13 mg/kg body weight), HTHQ (50 mg/kg body weight) and recombinant human erythropoietin (400 IU/kg body weight) were administered in combination. […] The test group 3 is used to confirm the presence or absence of the inhibitory effect brought about by combining HTHQ and rHuEPO on myocardial disorder.
# Doxorubicin was orally administered in a single dose to the rats in test groups 1 to 3. 2,3,5-trimethylhydroquinone-1-hexyl ether (HTHQ) was orally administered to the rats in test groups 2 and 3 twice in total: 3 days before the administration of doxorubicin and on the day of the administration. Recombinant human erythropoietin was daily administered to the rats in test group 3 starting from 3 days before the administration of doxorubicin by intravenous injection. The number of animals in each group was 16. 8 animals of each group were sacrificed after collecting blood on day 7 and 14 after the administration of doxorubicin, and the autopsy of the hearts, the calculation of the relative weights of the hearts, the histopathologic examination of the hearts and the hematological examination were conducted.
# “−” indicates “not found”, “+” indicates “mild”, “++” indicates “moderate”, and “+++” indicates “severe” in severity scores of the table.
# [3] = test system: Myocardial Disorder Induced by Doxorubicin; test: Histopathologic examination of the hearts (transmission electron microscope), myocardial disorder induced by doxorubicin; type: in vivo, female SD rats; conditions: Test group 2: doxorubicin + HTHQ 50 mg/kg; day 7
# Experimental: as §1
# Doxorubicin was orally administered in a single dose to the rats in test groups 1 to 3. 2,3,5-trimethylhydroquinone-1-hexyl ether (HTHQ) was orally administered to the rats in test groups 2 and 3 twice in total: 3 days before the administration of doxorubicin and on the day of the administration. […]
# [4] = test system: Creatine phosphokinase (CPK); test: Creatine phosphokinase (CPK) value in blood, myocardial disorder induced by doxorubicin; type: in vivo, female SD rats; conditions: Test group 2: doxorubicin + HTHQ 50 mg/kg; day 14; p<0.05
# Experimental: Doxorubicin is used to produce disease-model animals of cardiomyopathy. The doxorubicin and 2,3,5-trimethylhydroquinone-1-hexyl ether (HTHQ) as the hydroquinone derivative represented by the general formula (1) described above of the present invention were simultaneously administered to female SD rats of 4 week old after birth to examine the effect of the action. The test groups consisted of the control group to which sterile saline was administered; test group 1 to which doxorubicin (13 mg/kg body weight) alone was administered; test group 2 to which doxorubicin (13 mg/kg body weight) and HTHQ (50 mg/kg body weight) were administered in combination; and test group 3 to which doxorubicin (13 mg/kg body weight), HTHQ (50 mg/kg body weight) and recombinant human erythropoietin (400 IU/kg body weight) were administered in combination. The recombinant human erythropoietin (rHuEPO) is mainly used in the treatment of renal anemia etc., and has the effect to protect myocardium. The test group 3 is used to confirm the presence or absence of the inhibitory effect brought about by combining HTHQ and rHuEPO on myocardial disorder.
# Doxorubicin was orally administered in a single dose to the rats in test groups 1 to 3. […]
structure (smiles),measurement,setting,value
"CCCCCCOc1cc(C)c(O)c(C)c1C [HTHQ, 2,3,5-trimethylhydroquinone-1-hexyl ether]","infiltration of inflammatory cells (neutrophil, macrophages) in BAL fluid",[1],effectively reduced
same,Severity score: Cell infiltration in interstitial tissue,[2]; Day 7 after administration,−
same,Severity score: Degeneration of myocardial cells,[2]; Day 7 after administration,+
same,Severity score: Loss and disorganization of myocardial fibers,[2]; Day 7 after administration,+
same,Severity score: Loss of intercalated discs,[2]; Day 7 after administration,+
same,Severity score: Loss of striations,[2]; Day 7 after administration,+
same,Severity score: Vacuolation of myocardial fibers,[2]; Day 7 after administration,−
same,Severity score: Cell infiltration in interstitial tissue,[2]; Day 14 after administration,−
same,Severity score: Degeneration of myocardial cells,[2]; Day 14 after administration,+
same,Severity score: Loss and disorganization of myocardial fibers,[2]; Day 14 after administration,+
same,Severity score: Loss of intercalated discs,[2]; Day 14 after administration,+
same,Severity score: Loss of striations,[2]; Day 14 after administration,+
same,Severity score: Vacuolation of myocardial fibers,[2]; Day 14 after administration,+
same,lesions of cardiac tissue (light microscope),[2]; day 7,alleviated
same,lesions of cardiac tissue (light microscope),[2]; day 14,also alleviated
same,findings in myocardial cells (transmission electron microscope),[3],loss of striations was alleviated
same,creatine phosphokinase (CPK) value,[4],significantly lower compared to that of test group 1

# From patent publication US20180049996A1, “THERAPEUTIC AGENT FOR CHRONIC RESPIRATORY DISEASE AND COMPOSITION FOR INHIBITING CARDIAC FIBROSIS” (NIPPON HYPOX LABORATORIES INCORPORATED, priority 2015, published 2018)
